Experimental data from the NIST ThermoML archive (doi:10.1021/je200038n).
Numbers after ± are expanded uncertainties.

What was measured:
[1] = molar heat capacity at constant pressure; details: 3000 kPa, Liquid, Flow calorimetry
[2] = molar heat capacity at constant pressure; wn = mass fraction of the nth substance listed; details: 3000 kPa, Liquid, Flow calorimetry, w1 = 1

Row | SMILES | molar heat capacity at constant pressure ([1]; 304.17 K) | molar heat capacity at constant pressure ([1]; 314.14 K) | molar heat capacity at constant pressure ([1]; 324.11 K) | molar heat capacity at constant pressure ([1]; 334.09 K) | molar heat capacity at constant pressure ([2]; 304.17 K) | molar heat capacity at constant pressure ([2]; 314.14 K) | molar heat capacity at constant pressure ([2]; 324.11 K) | molar heat capacity at constant pressure ([2]; 334.09 K)
1 | N [ammonia] | 82.46 ± 0.53 J/K/mol | 83.45 ± 0.53 J/K/mol | 85.83 ± 0.53 J/K/mol | 89.36 ± 0.53 J/K/mol | – | – | – | –
2 | N [ammonia] + N#C[S-].[Na+] | – | – | – | – | 82.46 ± 0.53 J/K/mol | 83.45 ± 0.53 J/K/mol | 85.83 ± 0.53 J/K/mol | 89.36 ± 0.53 J/K/mol
